Measured values: patent US20020026053A1, “Novel 3-(substituted) -2- indolinones compounds and use thereof as inhibitors of protein kinase activity” (priority 1997, published 2002)

Target: T1, Met receptor (EGFR/Met chimeric cells, EMR) (Homo sapiens, UniProt P08581)
T1 construct: expressed in transfected cells; the other entry of the earlier key: EGFR (P00533, Epidermal growth factor receptor)
Experiment: Met Autophosphorylation Assay
Assay type: biochemical
Details: protocol P.130
Procedure, shortened: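 Met phosphorylation was measured by capture ELISA. Lysates (90 μg/100 μl, HNTG plus 1 mM PMSF) from transiently transfected EGFR/Met chimera (EMR) cells were bound for 60 min at room temperature to wells holding rabbit anti-Met (C-28) on goat anti-rabbit coat. Phosphotyrosine was the read-out.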

T1 sequence (P08581 with tags, fused parts or gaps): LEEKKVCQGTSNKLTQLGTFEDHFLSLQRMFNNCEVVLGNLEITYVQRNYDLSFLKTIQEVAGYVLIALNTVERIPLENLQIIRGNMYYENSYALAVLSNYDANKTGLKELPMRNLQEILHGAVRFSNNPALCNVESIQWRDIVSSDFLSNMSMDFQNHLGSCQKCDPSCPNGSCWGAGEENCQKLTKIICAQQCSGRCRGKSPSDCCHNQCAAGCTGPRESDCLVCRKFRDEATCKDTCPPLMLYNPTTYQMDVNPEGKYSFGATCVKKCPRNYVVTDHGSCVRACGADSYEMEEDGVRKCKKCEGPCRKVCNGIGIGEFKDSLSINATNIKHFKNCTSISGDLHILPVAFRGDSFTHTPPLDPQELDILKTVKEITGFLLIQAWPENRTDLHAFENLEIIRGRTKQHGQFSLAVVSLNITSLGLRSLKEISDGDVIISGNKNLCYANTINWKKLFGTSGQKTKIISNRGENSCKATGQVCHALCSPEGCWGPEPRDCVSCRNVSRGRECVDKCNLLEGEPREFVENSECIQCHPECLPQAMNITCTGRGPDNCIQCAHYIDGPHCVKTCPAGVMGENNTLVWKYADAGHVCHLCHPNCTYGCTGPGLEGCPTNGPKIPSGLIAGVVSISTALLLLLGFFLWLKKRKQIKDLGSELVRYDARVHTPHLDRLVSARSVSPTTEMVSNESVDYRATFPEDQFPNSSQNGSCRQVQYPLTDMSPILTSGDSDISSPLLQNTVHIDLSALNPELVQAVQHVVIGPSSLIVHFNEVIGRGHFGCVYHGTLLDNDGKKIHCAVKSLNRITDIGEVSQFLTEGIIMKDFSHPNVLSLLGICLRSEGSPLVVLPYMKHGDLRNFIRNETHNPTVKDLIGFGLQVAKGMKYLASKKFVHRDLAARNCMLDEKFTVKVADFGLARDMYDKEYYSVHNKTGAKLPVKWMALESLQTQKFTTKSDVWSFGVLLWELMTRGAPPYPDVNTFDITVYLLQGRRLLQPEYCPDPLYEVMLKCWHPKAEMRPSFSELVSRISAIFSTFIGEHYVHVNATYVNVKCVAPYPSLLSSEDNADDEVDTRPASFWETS

Point of comparison: `COc1ccc(C=C2C(=O)Nc3c(Br)cc(Br)c(C)c32)cc1O` [10738/H04], “Met Kinase % Inhibition (P.130)” value 72.9%. Against it:
- Cc1c(Br)cc(Br)c2c1C(=Cc1cccc(Oc3ccc(Cl)c(Cl)c3)c1)C(=O)N2 [10738/H03] — lower, 29.5%
- Cc1c(Br)cc(Br)c2c1C(=Cc1cc(O)ccc1[N+](=O)[O-])C(=O)N2 [10738/H05] — higher, 73.6%
- Cc1c(Br)cc(Br)c2c1C(=Cc1cccc(O)c1O)C(=O)N2 [10738/H06] — higher, 93.8%
